In general, IC50 refers to the concentration at which inhibition is half-maximal. A low value points to greater potency in that assay.

In ChEMBL document CHEMBL1139122, “Structure-activity relationship (SAR) studies of quinoxalines as novel HCV NS5B RNA-dependent RNA polymerase inhibitors” (Bioorg Med Chem Lett, 2007) one finds IC50 data, which are given here for 54 compounds.

A short description of the experiment: Inhibition of HCV NS5B RdRp. Also on record: species or system Hepacivirus hominis.
`O=C(N[C@@H](Cc1c[nH]c2ccccc12)C(=O)O)c1ccc2nc(-c3ccc(F)cc3)c(-c3ccc(F)cc3)nc2c1`: the concentration for half-maximal inhibition (IC50) came to 1.9 µM.

As to `O=C(N[C@@H](Cc1c[nH]c2ccccc12)C(=O)O)c1ccc2nc(-c3ccco3)c(-c3ccco3)nc2c1`, the IC50 was determined as 33 µM.

In turn, `O=C(Nc1ccc(-c2ccc(C(=O)O)o2)cc1)c1ccc2nc(C3CCCCC3)c(-c3ccccc3)nc2c1` had an IC50 of 1.8 µM.

On to `CCOC(=O)/C=C/c1ccc(NC(=O)C2(NC(=O)c3ccc4nc(-c5ccc(F)cc5)c(-c5ccc(F)cc5)nc4c3)CCCC2)cc1`, for which the IC50 was greater than 100 µM.

`O=C(N[C@@H](Cc1c[nH]c2ccc(O)cc12)C(=O)O)c1ccc2nc(-c3ccc(F)cc3)c(-c3ccc(F)cc3)nc2c1` had an IC50 of 1.3 µM.

Consider `O=C(N[C@@H](Cc1c[nH]c2ccc(O)cc12)C(=O)O)c1ccc2nc(-c3ccco3)c(-c3ccco3)nc2c1`, for which inhibition was half-maximal at 16 µM (IC50).

Regarding `Cc1ccc(-c2nc3ccc(C(=O)N[C@@H](Cc4c[nH]c5ccc(O)cc45)C(=O)O)cc3nc2-c2ccc(C)cc2)cc1`, the IC50 was found to be 6.1 µM.

On to `COC(=O)[C@H](Cc1c[nH]c2ccccc12)NC(=O)c1ccc2nc(-c3ccc(F)cc3)c(-c3ccc(F)cc3)nc2c1`, for which the IC50 was greater than 100 µM.

Compound `COC(=O)[C@H](Cc1c[nH]c2ccc(O)cc12)NC(=O)c1ccc2nc(-c3ccco3)c(-c3ccco3)nc2c1` registered an IC50 of 26 µM.

`NC(=O)COc1ccc2[nH]cc(C[C@H](NC(=O)c3ccc4nc(-c5ccc(F)cc5)c(-c5ccc(F)cc5)nc4c3)C(=O)O)c2c1` showed an IC50 of 3.2 µM.

Consider `COC(=O)/C=C/COc1ccc2[nH]cc(C[C@H](NC(=O)c3ccc4nc(-c5ccc(F)cc5)c(-c5ccc(F)cc5)nc4c3)C(=O)OC)c2c1`, for which it took 53 µM to reach half-maximal inhibition (IC50).

The compound `O=C(N[C@@H](Cc1c[nH]c2ccc(O)cc12)C(=O)O)c1ccc2nc(C3CCCCC3)c(-c3ccccc3)nc2c1` displayed an IC50 of 5 µM.

Take `O=C(N[C@@H](Cc1c[nH]c2ccccc12)C(=O)O)c1ccc2nc(-c3ccccn3)c(-c3ccccn3)nc2c1`: the IC50 was greater than 100 µM.

In the case of `O=C(N[C@@H](Cc1c[nH]c2ccc(O)cc12)C(=O)O)c1ccc2nc(C3CCCCC3)c(-c3ccc(F)cc3)nc2c1`, it took 4.1 µM to reach half-maximal inhibition (IC50).

Take `COC(=O)[C@H](Cc1c[nH]c2ccccc12)NC(=O)c1ccc2nc(-c3cccc(OC)c3)c(-c3cccc(OC)c3)nc2c1`: the IC50 was greater than 100 µM.

`CCOC(=O)/C=C/c1ccc(NC(=O)c2ccc3nc(-c4ccc(F)cc4)c(-c4ccc(F)cc4)nc3c2)cc1` gave an IC50 greater than 100 µM.

Turning to `COC(=O)[C@H](Cc1c[nH]c2ccccc12)NC(=O)c1ccc2nc(-c3ccccc3)c(-c3ccccc3)nc2c1`, the IC50 was greater than 100 µM.

In the case of `O=C(O)/C=C/COc1ccc2[nH]cc(C[C@H](NC(=O)c3ccc4nc(-c5ccc(F)cc5)c(-c5ccc(F)cc5)nc4c3)C(=O)O)c2c1`, inhibition was half-maximal at 2.2 µM (IC50).

For the compound `COC(=O)[C@H](Cc1c[nH]c2ccc(O)cc12)NC(=O)c1ccc2nc(-c3ccc(C)cc3)c(-c3ccc(C)cc3)nc2c1`, half-maximal inhibition (IC50) required 49 µM. Against the preceding compound, the IC50 is about 22-fold higher.

On to `O=C(N[C@@H](Cc1c[nH]c2ccccc12)C(=O)O)c1ccc2nc(C3CCCCC3)c(-c3ccc(F)cc3)nc2c1`, for which the 50% inhibitory concentration (IC50) was determined as 3.4 µM.

Compound `O=C(O)/C=C/c1ccc(NC(=O)c2ccc3nc(C4CCCCC4)c(-c4ccccc4)nc3c2)cc1` returned a half-inhibitory concentration (IC50) of 1.3 µM.

As for `COc1cccc(-c2nc3ccc(C(=O)N[C@@H](Cc4c[nH]c5ccc(O)cc45)C(=O)O)cc3nc2-c2cccc(OC)c2)c1`, the 50% inhibitory concentration (IC50) stood at 15 µM.

Regarding `O=C(O)/C=C/c1ccc(NC(=O)C2(NC(=O)c3ccc4nc(-c5ccc(F)cc5)c(-c5ccc(F)cc5)nc4c3)CCC2)cc1`, 0.69 µM corresponded to half-maximal inhibition (IC50).

Turning to `COC(=O)[C@H](Cc1c[nH]c2ccccc12)NC(=O)c1ccc2nc(-c3ccco3)c(-c3ccco3)nc2c1`, the 50% inhibitory concentration (IC50) is greater than 100 µM.

For the compound `O=C(O)/C=C/c1ccc(NC(=O)c2ccc3nc(C4CCCCC4)c(-c4ccc(F)cc4)nc3c2)cc1`, the IC50 came out at 4.1 µM.

The compound `O=C(N[C@@H](Cc1c[nH]c2ccc(O)cc12)C(=O)O)c1ccc2nc(-c3ccccc3)c(-c3ccccc3)nc2c1` showed an IC50 of 11 µM.

`O=C(N[C@@H](Cc1c[nH]c2ccccc12)C(=O)O)c1ccc2nc(-c3ccccc3)c(-c3ccccc3)nc2c1` registered an IC50 of 15 µM.

Take `O=C(N[C@@H](Cc1c[nH]c2ccccc12)C(=O)O)c1ccc2nc(-c3ccccc3)c(C3CCCCC3)nc2c1`: half-maximal inhibition (IC50) was put at 1.8 µM. This IC50 lies about 8.3-fold lower than the previous one.

`CCOC(=O)/C=C/c1ccc(NC(=O)C2(NC(=O)c3ccc4nc(-c5ccc(F)cc5)c(-c5ccc(F)cc5)nc4c3)CCC2)cc1` gave an IC50 of 37 µM.

As to `O=C(O)/C=C/c1ccc(NC(=O)c2ccc3nc(-c4ccc(F)cc4)c(-c4ccc(F)cc4)nc3c2)cc1`, half-maximal inhibition (IC50) was put at 17 µM.

The compound `O=C(O)c1ccc2nc(-c3ccccn3)c(-c3ccccn3)nc2c1` registered an IC50 greater than 100 µM.

Turning to `O=C(Nc1ccc(-c2ccc(C(=O)O)o2)cc1)c1ccc2nc(-c3ccccc3)c(C3CCCCC3)nc2c1`, the concentration for half-maximal inhibition (IC50) turned out to be 1.6 µM.

Compound `O=C(O)COc1ccc2[nH]cc(C[C@H](NC(=O)c3ccc4nc(-c5ccc(F)cc5)c(-c5ccc(F)cc5)nc4c3)C(=O)O)c2c1` registered an IC50 of 1.7 µM.

For `COc1cccc(-c2nc3ccc(C(=O)O)cc3nc2-c2cccc(OC)c2)c1`, the IC50 was greater than 100 µM.

The compound `COC(=O)[C@H](Cc1c[nH]c2ccc(O)cc12)NC(=O)c1ccc2nc(-c3cccc(OC)c3)c(-c3cccc(OC)c3)nc2c1` gave a half-inhibitory concentration (IC50) greater than 100 µM.

As to `CCOC(=O)/C=C/c1ccc(NC(=O)C2(NC(=O)c3ccc4nc(-c5ccc(F)cc5)c(C5CCCCC5)nc4c3)CCC2)cc1`, it took 1.3 µM to reach half-maximal inhibition (IC50).

As to `COC(=O)COc1ccc2[nH]cc(C[C@H](NC(=O)c3ccc4nc(-c5ccc(F)cc5)c(-c5ccc(F)cc5)nc4c3)C(=O)OC)c2c1`, the IC50 was determined as 100 µM. This IC50 lies about 77-fold higher than the previous one.

In turn, `CCOC(=O)/C=C/c1ccc(NC(=O)C2(NC(=O)c3ccc4nc(C5CCCCC5)c(-c5ccc(F)cc5)nc4c3)CCC2)cc1` showed an IC50 of 5.1 µM.

`O=C(N[C@@H](Cc1c[nH]c2ccccc12)C(=O)O)c1ccc2nc(C3CCCCC3)c(-c3ccccc3)nc2c1` displayed an IC50 of 3.7 µM. This IC50 and that of the compound before are within 1.5-fold of each other.

For `COC(=O)[C@H](Cc1c[nH]c2ccc(O)cc12)NC(=O)c1ccc2nc(-c3ccc(F)cc3)c(-c3ccc(F)cc3)nc2c1`, the IC50 is 5.5 µM.

`O=C(O)c1ccc2nc(-c3ccccc3)c(-c3ccccc3)nc2c1` gave an IC50 of 79 µM.

Turning to `O=C(N[C@@H](Cc1c[nH]c2ccc(O)cc12)C(=O)O)c1ccc2nc(-c3ccc(F)cc3)c(C3CCCCC3)nc2c1`, half-maximal inhibition (IC50) was put at 4.6 µM.

On to `O=C(O)c1ccc2nc(-c3ccc(F)cc3)c(-c3ccc(F)cc3)nc2c1`, for which 5.5 µM corresponded to half-maximal inhibition (IC50).

The compound `O=C(N[C@@H](Cc1c[nH]c2ccc(O)cc12)C(=O)O)c1ccc2nc(-c3ccccc3)c(C3CCCCC3)nc2c1` showed a concentration for half-maximal inhibition (IC50) of 0.6 µM.

With `O=C(O)c1ccc2nc(-c3ccco3)c(-c3ccco3)nc2c1`, inhibition was half-maximal at 17 µM (IC50).

Turning to `COC(=O)[C@H](Cc1c[nH]c2ccccc12)NC(=O)c1ccc2nc(-c3ccc(C)cc3)c(-c3ccc(C)cc3)nc2c1`, the IC50 is greater than 100 µM.

`Cc1ccc(-c2nc3ccc(C(=O)O)cc3nc2-c2ccc(C)cc2)cc1` came in with a half-inhibitory concentration (IC50) of 40 µM.

As to `O=C(N[C@@H](Cc1c[nH]c2ccccc12)C(=O)O)c1ccc2nc(-c3ccc(F)cc3)c(C3CCCCC3)nc2c1`, the IC50 came to 1.6 µM.

As for `COc1cccc(-c2nc3ccc(C(=O)N[C@@H](Cc4c[nH]c5ccccc45)C(=O)O)cc3nc2-c2cccc(OC)c2)c1`, the IC50 was greater than 100 µM.

In turn, `COC(=O)[C@H](Cc1c[nH]c2ccccc12)NC(=O)c1ccc2nc(-c3ccccn3)c(-c3ccccn3)nc2c1` displayed an IC50 greater than 100 µM.

The compound `COC(=O)[C@H](Cc1c[nH]c2ccc(O)cc12)NC(=O)c1ccc2nc(-c3ccccc3)c(-c3ccccc3)nc2c1` had an IC50 of 72 µM. In other words, the double-digit micromolar range.

The compound `O=C(O)/C=C/c1ccc(NC(=O)C2(NC(=O)c3ccc4nc(-c5ccc(F)cc5)c(-c5ccc(F)cc5)nc4c3)CCCC2)cc1` yielded an IC50 of 1.2 µM.

In the case of `O=C(O)/C=C/c1ccc(NC(=O)c2ccc3nc(-c4ccc(F)cc4)c(C4CCCCC4)nc3c2)cc1`, it took 4.6 µM to reach half-maximal inhibition (IC50).

As to `COC(=O)[C@H](Cc1c[nH]c2ccc(OCC(N)=O)cc12)NC(=O)c1ccc2nc(-c3ccc(F)cc3)c(-c3ccc(F)cc3)nc2c1`, 8.6 µM corresponded to half-maximal inhibition (IC50).
